Six compounds from patent US20220389010A1, “Novel Triazolopyridine Derivatives and Pharmaceutical Composition Comprising Same” (Daewoong Pharmaceutical Co., Ltd., priority 2019, published 2022) can be followed below.

For this assay, the target named is T1, Recombinant purified human JAK3 (Homo sapiens, UniProt P52333).
T1 construct: purchased Promega V9441
T1 sequence (P52333 1-1124): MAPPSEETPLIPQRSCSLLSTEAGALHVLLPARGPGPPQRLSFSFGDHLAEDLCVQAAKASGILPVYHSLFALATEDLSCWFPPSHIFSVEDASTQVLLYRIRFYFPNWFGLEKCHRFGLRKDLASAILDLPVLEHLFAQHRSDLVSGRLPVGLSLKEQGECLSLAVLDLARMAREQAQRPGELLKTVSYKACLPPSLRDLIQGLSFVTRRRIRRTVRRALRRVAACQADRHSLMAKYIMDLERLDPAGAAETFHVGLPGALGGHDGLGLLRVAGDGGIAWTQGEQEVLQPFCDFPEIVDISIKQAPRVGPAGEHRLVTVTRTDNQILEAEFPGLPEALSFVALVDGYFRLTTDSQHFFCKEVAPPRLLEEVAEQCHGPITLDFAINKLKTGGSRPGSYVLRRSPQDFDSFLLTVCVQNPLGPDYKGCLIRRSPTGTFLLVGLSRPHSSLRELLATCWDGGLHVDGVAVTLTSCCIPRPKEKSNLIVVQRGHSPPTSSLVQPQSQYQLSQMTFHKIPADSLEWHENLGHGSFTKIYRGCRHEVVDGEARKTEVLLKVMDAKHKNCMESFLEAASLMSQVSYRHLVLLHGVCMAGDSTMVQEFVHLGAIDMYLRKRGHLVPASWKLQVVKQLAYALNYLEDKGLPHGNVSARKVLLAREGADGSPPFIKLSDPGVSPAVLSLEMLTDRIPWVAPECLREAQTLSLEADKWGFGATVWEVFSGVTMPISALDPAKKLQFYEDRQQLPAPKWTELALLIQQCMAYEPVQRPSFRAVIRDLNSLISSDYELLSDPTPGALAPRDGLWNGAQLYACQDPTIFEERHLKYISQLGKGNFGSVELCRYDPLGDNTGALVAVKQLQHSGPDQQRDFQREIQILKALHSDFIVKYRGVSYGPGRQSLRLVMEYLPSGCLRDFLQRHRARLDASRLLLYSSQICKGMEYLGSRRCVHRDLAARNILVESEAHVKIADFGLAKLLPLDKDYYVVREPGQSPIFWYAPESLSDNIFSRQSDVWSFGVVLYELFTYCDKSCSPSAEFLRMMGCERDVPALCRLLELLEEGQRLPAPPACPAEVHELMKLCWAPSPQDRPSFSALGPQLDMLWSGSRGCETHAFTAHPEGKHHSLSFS
The assay can be described thus: JAK3 inhibitory activity test (ADP-Glo kinase assay). The format is biochemical. To be noted: ATP 5 uM, 1 hour incubation at 30° C. How it is done:
The inhibitory activities against JAK3 were measured for the compounds prepared in the above Examples through in vitro analysis on the ADP Glow (Glo) platform.
Specifically, the inhibitory activities against JAK3 were measured using a JAK3 kinase assay kit (Promega, V9441), which was purchased from Promega. Recombinant purified human JAK3 was diluted with 1× kinase reaction buffer (JAK3: 40 mM Tris-CI, pH 7.5, 20 mM MgCl2, 0.1 mg/mL BSA and 50 uM OTT and added to a 96 well plate (JAK3: final concentration of 4 ng per reaction). The compounds prepared in the previous Examples were treated so as to be finally a 1% DMSO aqueous solution, and a substrate cocktail containing ATP (JAK3: final concentration of 5 uM) and 0.2 ug/ul of Poly(Glu4, Tyri) peptide (JAK3 final concentration) in the total 25 uL reactants was added to a 96-well plate to initiate enzymatic reaction. After incubation (30° C.) for 1 hour, equivalent volume (25 uL per reaction) of ADP Glo was added and incubated (30° C.) for 40 minutes at room temperature. Then, a kinase detection reagent (50 uL per reaction) was added and incubated (30° C.) for 30 minutes at room temperature. The kinase activity was measured by chemiluminescence according to the instructions of ADP Glo kinase assay kit, and the inhibitory activity of the compounds according to the present invention was calculated. For the analysis of the results of each compound, Microsoft Excel was used, and IC50 values were calculated by SigmaPlot software.
One may read the IC50 as the concentration needed to halve the response being measured. With `C=CC(=O)Nc1cccc(Oc2cccc3nc(Nc4ccc5scnc5c4)nn23)c1` [Example 12, N-(3-(2-(benzo[d]thiazol-5-ylamino)-[1,2,4]triazolo[1,5-a]pyridin-5-yloxy)phenyl)acrylamide], the half-inhibitory concentration (IC50) was 2.6 nM. As to `C=CC(=O)Nc1cccc(Oc2cccc3nc(Nc4cccc(Oc5ccccc5)c4)nn23)c1` [Example 5, N-(3-(2-(3-phenoxyphenylamino)-[1,2,4]triazolo[1,5-a]pyridin-5-yloxy)phenyl)acrylamide], the concentration for half-maximal inhibition (IC50) turned out to be 35.8 nM.

On to `C=CC(=O)Nc1cccc(Oc2cccc3nc(Nc4ccc(N5CCOCC5)cc4)nn23)c1` [Example 4, N-(3-(2-(4-morpholinophenylamino)-[1,2,4]triazolo[1,5-a]pyridin-5-yloxy)phenyl)acrylamide], for which the half-inhibitory concentration (IC50) was found to be 0.6 nM. With `C=CC(=O)Nc1ccc(F)c(Oc2cccc3nc(Nc4cnn(C(F)F)c4)nn23)c1` [Example 31, N-(3-(2-(1-(difluoromethyl)-1H-pyrazol-4-ylamino)-[1,2,4]triazolo[1,5-a]pyridin-5-yloxy)-4-fluorophenyl)acrylamide], the IC50 was 18.2 nM. On to `C=CC(=O)Nc1ccc(F)c(Oc2cccc3nc(Nc4ccc(N5CCN(C)CC5)cc4)nn23)c1` [Example 29, N-(4-fluoro-3-(2-(4-(4-methylpiperazin-1-yl)phenylamino)-[1,2,4]triazolo[1,5-a]pyridin-5-yloxy)phenyl)acrylamide], for which the IC50 was 0.7 nM. Consider `C=CC(=O)Nc1cccc(Oc2cccc3nc(Nc4ccc(N5CCOCC5)nc4)nn23)c1` [Example 21, N-(3-(2-(6-morpholinopyridin-3-ylamino)-[1,2,4]triazolo[1,5-a]pyridin-5-yloxy)phenyl)acrylamide], for which the 50% inhibitory concentration (IC50) was 0.7 nM.
